Test results reported in patent US20070071686A1, “Liquid preparation containing tobramycin” (Pari GmbH, priority 2003, published 2007).

Test: Physicochemical characterisation of tobramycin solutions (pH, osmolality, dynamic viscosity, surface tension)
Method: Thus, aqueous solutions of tobramycin with a pH of 6.0 to 6.5 have a 50% greater viscosity (about 2.9 mPa·s) at a concentration of active agent of 180 mg/ml compared to a solution with 100 mg/ml (about 1.8 mPa·s). […] Under standard conditions, the preparations according to the present invention have a viscosity of about 1.4 to 2.3 mPa·s, and preferably a viscosity in the range of about 1.6 to 2.0 mPa·s. A viscosity of about 1.8 mPa·s is most preferred.
11.08 g of tobramycin, 5.41 g of sulfuric acid (96%), 0.2 g of sodium chloride and 90.95 g of water for injection are used as starting materials. All steps are carried out under aseptic conditions and under nitrogen gas. The water is provided first, to which the sulfuric acid is added. Then sodium chloride and the active agent are added one after the other. The mixture is stirred until complete dissolution of all solid components as determined by visual control. This yields about 100 ml of a solution which has a pH of about 6.0, an osmolality of about 0.22 Osmol/l, a dynamic viscosity of about 1.9 mPa·s and a surface tension of about 71 mN/m. This solution is filtered to sterility and filled into an infusion bottle with a volume of 100 ml. This bottle is tightly closed with a pierceable elastomer stopper and secured with an aluminium cap.
10.88 g of tobramycin, 5.41 g of sulfuric acid (96%), 0.2 g sodium chloride, 0.1 g Tween® 80 and 90.95 g of water for injection are used as starting materials. All steps take place under aseptic conditions and nitrogen gas. The water is provided first to which the sulfuric acid is added. Subsequently, tobramycin is added and dissolved at room temperature. Sodium chloride and Tween® are added to this solution. The mixture is stirred until a clear solution is formed. This yields about 100 ml of a solution which has a pH of about 6.2, an osmolality of about 0.22 Osmol/l, a dynamic viscosity of about 1.9 mPa·s and a surface tension of about 43 mN/m. The solution is filtered to sterility and filled aseptically into single dose containers of polypropylene at 2 ml each. […]

## NC[C@H]1O[C@H](O[C@H]2[C@H](O)[C@@H](O[C@H]3O[C@H](CO)[C@@H](O)[C@H](N)[C@H]3O)[C@H](N)C[C@@H]2N)[C@H](N)C[C@@H]1O [tobramycin, O-3-amino-3-desoxy-α-D-glucopyranosyl(1→4)-O-[2,6-diamino-2,3,6-tridesoxy-α-D-ribo-hexopyranosyl-(1→6)]-2-deoxystreptamine]
Aqueous solution, pH 6.0 to 6.5, 100 mg/ml
  viscosity: about 1.8 mPa·s
Aqueous solution, pH 6.0 to 6.5, 180 mg/ml
  viscosity: about 2.9 mPa·s
Comparable aqueous solution, 120 mg/ml
  viscosity: about 2.1 mPa·s
